Laboratory results published in US20200316159A1, “SUSTAINED RELEASE COMPOSITIONS OF KAPPA-OPIOID RECEPTOR AGONIST” (JT PHARMACEUTICALS, INC., priority 2016, published 2020).
Non-standard residues stand in square brackets, D forms with d. Residues, ends and D or L forms follow the SMILES beside them. *: point of attachment. NH(4-picolyl) = c1cc(CN*)ccn1; dNle = CCCC[C@@H](N)C(=O)O

How the values were obtained:
[1] = system: abuse liability (lever pressing for intravenous drug delivery); test: Self-administration model; type: in vivo, rat; conditions: cocaine 50 ug/50 ul bolus infusion, 7 days, after replacing JT09
Text: Self-Administration Model.
Addiction/dependence is a critical side effect of opioids and must be evaluated with any new member of this family. The most reliable test of abuse liability with the most translational relevance is a contingent drug self-administration model, in which rats are trained to press a lever for intravenous drug delivery. Sixteen standard self-administration chambers (30×20×20 cm, Med Associates) were housed inside sound-attenuating cubicles fitted with a fan for airflow and to mask noise. Each chamber contained two retractable levers, two stimulus lights, a speaker for tone delivery, and a house light to provide general illumination. In addition, each chamber was equipped with a balanced metal arm and spring leash attached to a swivel (Instech). Tygon® tubing extended through the leash and was connected to a 10 ml syringe mounted on an infusion pump located outside the sound-attenuating cubicle. Rats were anesthetized with i.p. injections of ketamine (66 mg/kg; Vedcolnc, St Joseph, Mo., USA), xylazine (1.3 mg/kg; Lloyd Laboratories, Shenandoah, Iowa, USA), and equithesin (0.5 ml/kg); sodium pentobarbital (4 mg/kg), chloral hydrate (17 mg/kg), and 21.3 mg/kg magnesium sulfate heptahydrate dissolved in 44% propylene glycol, 10% ethanol solution). Ketorolac (2.0 mg/kg, i.p. Sigma, St. Louis, Mo., USA) was given just prior to surgery as an analgesic. One end of a silastic catheter was inserted 33 mm into the external right jugular and secured with 4.0 silk sutures. The other end ran subcutaneously and exited from a small incision just below the scapula. This end is attached to an infusion harness (Instech Solomon, Plymouth Meeting, Pa., USA) that provides access to an external port for IV drug delivery. […]
During self-administration, rats received an IV infusion (0.1 ml) of 10 U/ml heparinized saline before each session. […] Cocaine was chosen for comparison purposes because it is readily self-administered.

[2] = system: central pain (acute thermal stimuli); test: Hot plate model (Example 2); type: in vivo, rat; conditions: JT compounds 20 mg/kg oral; morphine 10 mg/kg i.p.
Procedure: The hotplate model evaluates central pain attenuation in a rodent after applying an acute thermal stimuli. Experimental rats were orally gavaged with lead compounds JT07 or JT09 (20 mg/kg) and rested for 20 min prior to being placed on the hotplate. Control rats received i.p. injections of morphine (10 mg/kg) and rested for 20 min prior to be being placed on the hotplate. Rats were then assessed over time on a hotplate analgesia meter (Columbus Instruments, Columbus, Ohio), essentially a flat surface maintained at 53.0+/−0.2° C. The time until the rat lifted, nibbled, or shook one of its hind paws was recorded, which is known as the response latency. Animals remained on the hotplate no longer that 30 sec to avoid tissue damage. Experiments were scored as the percent of maximal possible effect (% MPE) calculated using the following equation: % MPE=[(post-drug latency−pre-drug latency)/(cut-off pre-drug latency)]×100%. The dose response curves and EC50 values were generated using GraphPad Prism.
As an initial screen for analgesic activity, JT07 and JT09 were evaluated in the hotplate analgesic model using a standard oral dose of 20 mg/kg. Percent maximum possible effect was analyzed for each compound and compared to morphine (10 mg/kg, i.p.).

[3] = system: sedation (distance traveled); test: Locomotor open field test; conditions: JT09 20 mg/kg p.o.; morphine 10 mg/kg i.p.
Procedure: Locomotor Open Field Test.
Sedation and a loss of muscle coordination are common CNS-mediated side effects of opioids. To assess the sedative effects of JT09, rats were given JT09 (20 mg/kg, p.o.) or morphine (10 mg/kg, i.p.) 20 min before placement in an automated (68 l×21 w×21 h cm) activity chambers for a 30 min test. Morphine was used as a comparison group due to its well-known sedative effects.

[4] = system: central pain (acute thermal stimuli); test: Hotplate model (Example 1); type: in vivo, rat (male Sprague-Dawley); conditions: morphine at 5 mg/kg
Procedure: The hotplate model evaluates central pain attenuation in a rodent after applying an acute thermal stimuli. The rat is treated with compound and assessed over time on a hotplate analgesia meter (Columbus Instruments, Columbus, Ohio), essentially a flat surface maintained at 53.0+/−0.2° C. The time until the rat lifts, nibbles or shakes one of its hind paws is recorded, which is known as the response latency. Animals remain on the hotplate no longer than 30 sec to avoid tissue damage. Experiments are scored as the percent of maximal possible effect (% MPE) calculated using the following equation: % MPE=[(post-drug latency−pre-drug latency)/(cut-off pre-drug latency)]×100%. The dose response curves and EC50 values were generated using GraphPad Prism®.
As discussed, central availability of a kappa agonist can lead to undesirable side effects. To assess the peripheral to central selectivity of compound 9 an i.v. dose response of this drug was performed in both a model of peripheral pain (A. the writhing assay) and central pain (B. the hotplate assay). The ratio of EC50s for each of these assays can then be used to determine the peripheral selectivity of the drug.

[5] = target: kappa opioid receptor (Homo sapiens, UniProt P41145); test: Opioid receptor activation assay, DiscoveRx PathHunter Beta-Arrestin, kappa; type: cell-based; conditions: PathHunter Beta-Arrestin; for EC50: 3-6 repeats, read-out: 95% confidence levels of EC50, activation of kappa receptors
Text: Opioid Receptor Activation Assay.
PathHunter™ Beta-Arrestin GPCR Functional Profiling and Screening cell lines that express the individual opioid receptors were obtained from DiscoveRx (Fremont, Calif.). These cells express the kappa (or mu or delta) opioid receptor fused to a proprietary β-galactosidase enzyme fragment and the […]-arrestin gene fused to an enzyme acceptor (the remaining fragment of β-galactosidase). Upon activation of the receptor, β-arrestin is recruited to the GPCR and the β-galactosidase is activated through enzyme complementation. Cells were grown using standard cell culture techniques and then plated at 30,000 cells/well in 90 μl in a 96 well white, clear bottom plate and incubated overnight. Dilutions were prepared in dilution buffer (HBBS, 20 mMHepes, 0.1% BSA) and 10 μl added per well. Plates were then incubated for 90 min at 37° C. in a water-saturated atmosphere. Plates were then allowed to come to room temp and DiscoveRx's proprietary developing agent added as recommended by the manufacturer. This agent contains a detergent, 6-O-β-galactopyranosyl-luciferen and luciferase. Plates were then incubated for 1 hr at room temperature before being read on a luminometer. Antagonist studies were performed in an identical manner except after the overnight incubation 10 μl media was removed and replaced with drug or naloxone at the indicated concentration. […] To calculate % maximal luminescence, background was subtracted from the experimental values and this was divided by maximal luminescence and multiplied by 100.
To confirm this, and to determine their relative activities, we assessed their efficiency using PathHunter™ Beta-Arrestin GPCR Functional Profiling and Screening cell lines from DiscoveRx (Fremont, Calif.) as described in the Materials and Methods section.

[6] = system: peripheral pain (acetic acid-induced writhing); test: Acetic acid-induced writhing model (Example 1); type: in vivo, rat (male Sprague-Dawley); conditions: oral gavage, screening dose 20 mg/kg, 20 min before i.p. 3% acetic acid; Student's t-test p<0.05
Procedure: Acetic Acid-Induced Writhing Model.
This protocol is a well-established model of peripheral pain. Following oral or i.v. administration of compound, rats are rested for 20 min before i.p. injection with 2 ml/kg of 3% acetic acid. Animals are then rested an additional 10 min before being placed in a 10×10 inch chamber. A video of the rats is then recorded for next 20 min. The video is subsequently blindly scored by an investigator who examines each rat every 20 sec for the entire 20 min (60 individual observations). At each observation rats are scored on whether they are writhing or not. Writhing is defined as a constriction of the abdominal area, often with extension of the hind legs. At the end of the experiment the percent of the time the animal was writhing was calculated. The dose-response curves and EC50 values were generated using GraphPad Prism®.
As an initial biological screen the potential for oral availability of the 18 peptides in our library were evaluated in a well-established model of peripheral pain, the acetic acid-induced writhing assay. Rats were administered the various compounds by oral gavage at a screening dose of 20 mg/kg 20 min before i.p. injection with 2 ml/kg of 3% acetic acid. 10 min later animals were assessed for writhing as indicated in the methods section. […] Thus, several of the Arg modifications can impart CR665 with the ability to cross the gut barrier. Compounds 3, 7, 9, 11 and 17 were selected for further analysis.

kappa opioid receptor, sequence (P41145 whole entry): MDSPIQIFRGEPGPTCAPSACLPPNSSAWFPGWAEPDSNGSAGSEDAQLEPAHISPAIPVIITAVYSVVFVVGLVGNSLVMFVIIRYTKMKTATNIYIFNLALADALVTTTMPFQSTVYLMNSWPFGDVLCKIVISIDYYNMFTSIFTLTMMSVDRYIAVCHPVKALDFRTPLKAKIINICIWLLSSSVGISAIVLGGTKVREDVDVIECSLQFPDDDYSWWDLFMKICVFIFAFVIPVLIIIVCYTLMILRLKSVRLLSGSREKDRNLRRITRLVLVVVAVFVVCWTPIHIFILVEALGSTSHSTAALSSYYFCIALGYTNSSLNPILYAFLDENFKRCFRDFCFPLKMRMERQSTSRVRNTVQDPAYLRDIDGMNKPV

| Structure (SMILES) | EC50, activation of kappa opioid receptor [5] | EC50 [5] [µM] | further results |
| --- | --- | --- | --- |
| COC(=O)[C@H]1[C@@H](OC(=O)c2ccccc2)C[C@@H]2CC[C@H]1N2C [cocaine, reference compound] | – | – | number of cocaine infusions (nose-poke) [1]: increased over the 7 days |
| CN1CC[C@]23c4c5ccc(O)c4O[C@H]2[C@@H](O)C=C[C@H]3[C@H]1C5 [morphine] | – | – | analgesic activity in hotplate model (% maximum possible effect) [2]: potent analgesic; sedation in locomotor test [3]: highly sedative; time of maximum response in hotplate assay [4]: 15 min |
| CCCC[C@@H](NC(=O)[C@@H](Cc1ccccc1)NC(=O)[C@H](N)Cc1ccccc1)C(=O)N[C@H](CCC[N+](C)(C)C)C(=O)NCc1ccncc1 [Compound 17] | low nM range | 0.0472 to 0.166 | – |
| CCCC[C@@H](NC(=O)[C@@H](Cc1ccccc1)NC(=O)[C@H](N)Cc1ccccc1)C(=O)N[C@H](CCCCNCc1ccccc1)C(=O)NCc1ccncc1 [Compound 11] | low nM range | 0.00815 to 0.0268 | – |
| CCCC[C@@H](NC(=O)[C@@H](Cc1ccccc1)NC(=O)[C@H](N)Cc1ccccc1)C(=O)N[C@H](CCCNC(=N)N)C(=O)NCc1ccncc1 [CR665, D-Phe-D-Phe-D-Nle-D-Arg-NH-4-Picolyl, reference compound] (H-[dF][dF][dNle][dR]-{NH(4-picolyl)}) | low nM range | 0.00907 to 0.0131 | effect on writhing (outward physical signs of peripheral pain) versus saline control [6]: did not have a significant effect |
| CCCC[C@@H](NC(=O)[C@@H](Cc1ccccc1)NC(=O)[C@H](N)Cc1ccccc1)C(=O)N[C@H](CCCCNC1CCCCC1)C(=O)NCc1ccncc1 [Compound 7] | low nM range | 0.00563 to 0.0131 | – |
| CCCCNC(=N)NCCC[C@@H](NC(=O)[C@@H](CCCC)NC(=O)[C@@H](Cc1ccccc1)NC(=O)[C@H](N)Cc1ccccc1)C(=O)NCc1ccncc1 [Compound 3] | low nM range | 0.00138 to 0.0187 | – |
